# Positions of bridges follow the written chain, without caps; N, C: chain ends. Residues, ends and D or L forms follow the SMILES beside them.
# Legend:
# [1] = system: hKCa2.2 (SK2); test: Whole-cell patch-clamp, hKCa2.2 current in transfected CHO cells; assay type: cell-based, human; conditions: 100 nM; ~3 min
# From the text: The scorpion toxins from the α-KTx 2 family also modulate the function of Ca^2+-activated potassium channels, in addition to Kv1 channels. Therefore, we investigated the activity of Cvill6 and Cvill7 toxins on three different types of Ca^2+-activated K^+ channels: (1) hKCa2.2 (SK2), the small-conductance Ca^2+-activated channel; (2) hKCa3.1 (IKCa1, SK4), the intermediate-conductance Ca^2+-activated channels, mainly expressed in T lymphocytes; and (3) mKCa1.1 (BK or MaxiK), the large-conductance voltage- and Ca^2+- activated channel of mice. […] The quantity of native toxins was insufficient to conduct the full dose–response curves at this high concentration range (see above).
# Chinese hamster ovary (CHO) cells (generously provided by Yosef Yarden, Weizmann Institute of Science, Rehovot, Israel) or human embryonic kidney (HEK293) cells were cultured and maintained in Dulbecco’s modified Eagle medium (DMEM, Thermo Fisher Scientific, Waltham, MA, USA) supplemented with 2 mM L-glutamine, 10% fetal bovine serum (FBS), 100 µg/mL streptomycin, and 100 U/mL penicillin-g (Sigma-Aldrich, Budapest, Hungary) following standard culturing conditions. […] Cells expressing GFP were identified using a Nikon TE 2000U fluorescence microscope (Nikon, Tokyo, Japan) with bandpass filters set to 455–495 nm for excitation and 515–555 nm for emission. […]
# [2] = system: hKv1.5; assay type: cell-based, human; conditions: 100 nM; ~3 min
# From the text: (§1) For current recordings, Kv1.1, Kv1.2, and Kv1.5 were transiently expressed in CHO cells while for Kv11.1 a stable HEK293 cell line was used. To record Kv1.3 currents human peripheral T lymphocytes were activated with Phytohemagglutinin A (PHA) to boost Kv1.3 expression and Ca^2+-free intracellular solution to prevent the KCa3.1 channel opening. […] Appropriate voltage protocols were applied to record the K^+ currents from voltage-clamped cells in whole-cell configurations. Toxins were freshly dissolved in the bath solution supplemented with 0.1 mg/mL BSA and applied to the patched cells via a gravity-fed micro-perfusion system with an approximate flow rate of 200 µL/min.
# Chinese hamster ovary (CHO) cells (generously provided by Yosef Yarden, Weizmann Institute of Science, Rehovot, Israel) or human embryonic kidney (HEK293) cells were cultured and maintained in Dulbecco’s modified Eagle medium (DMEM, Thermo Fisher Scientific, Waltham, MA, USA) supplemented with 2 mM L-glutamine, 10% fetal bovine serum (FBS), 100 µg/mL streptomycin, and 100 U/mL penicillin-g (Sigma-Aldrich, Budapest, Hungary) following standard culturing conditions [52]. For transient expression of ion channels, CHO cells were transfected using the Lipofectamine 2000 kit (Invitrogen, Waltham, MA, USA) following the manufacturer’s instructions with plasmids encoding specific ion channels, including hKv1.1 (KCNA1 gene), hKv1.2 (KCNA2 gene), and hKv1.5 (KCNA5 gene) in a pCMV6-AC-GFP vector (OriGene Technologies), hKCa2.2 (KCNN2 gene) in a pCDN3 plasmid (for this transfection a GFP containing plasmid was co-transfected, courtesy of Bernard Attali, Tel Aviv University, Tel Aviv, Israel), and hKCa3.1 (KCNN4 gene) in a pEGFP-C1 vector (a kind gift by H. Wulff, University of California, Davis, CA, USA). […] Electrophysiological recordings were typically conducted 24 to 48 h after transfection. […]
# (§2) Whole-cell currents were recorded using the patch-clamp technique in voltage-clamp mode, following standard protocols [73]. […]
# [3] = target: T1, hKCa3.1 (IKCa1, SK4) (Homo sapiens, UniProt O15554); test: Whole-cell patch-clamp, hKCa3.1 current in transfected CHO cells; assay type: cell-based
# T1 construct: expressed in transfected cells; host or cells: CHO cells, transient transfection (Lipofectamine 2000); plasmid a gift of H. Wulff
# T1 sequence (O15554 whole entry): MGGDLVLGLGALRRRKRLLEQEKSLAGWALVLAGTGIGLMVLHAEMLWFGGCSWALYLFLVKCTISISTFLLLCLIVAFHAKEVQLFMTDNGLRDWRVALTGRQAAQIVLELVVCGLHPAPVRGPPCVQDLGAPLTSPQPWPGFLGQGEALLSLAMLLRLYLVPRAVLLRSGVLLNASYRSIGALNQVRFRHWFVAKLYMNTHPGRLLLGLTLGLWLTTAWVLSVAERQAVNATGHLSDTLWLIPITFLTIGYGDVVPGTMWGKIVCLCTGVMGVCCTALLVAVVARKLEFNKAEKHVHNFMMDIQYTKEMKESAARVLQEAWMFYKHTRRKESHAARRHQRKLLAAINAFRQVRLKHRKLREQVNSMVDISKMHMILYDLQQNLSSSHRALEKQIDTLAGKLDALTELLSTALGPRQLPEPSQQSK
# From the text: The scorpion toxins from the α-KTx 2 family also modulate the function of Ca^2+-activated potassium channels, in addition to Kv1 channels. Therefore, we investigated the activity of Cvill6 and Cvill7 toxins on three different types of Ca^2+-activated K^+ channels: (1) hKCa2.2 (SK2), the small-conductance Ca^2+-activated channel; (2) hKCa3.1 (IKCa1, SK4), the intermediate-conductance Ca^2+-activated channels, mainly expressed in T lymphocytes; and (3) mKCa1.1 (BK or MaxiK), the large-conductance voltage- and Ca^2+- activated channel of mice. Appropriate depolarization protocols were applied to record the K^+ current through respective KCa channels as shown in the inset of each panel in Figure 6A–C. […] Cvill6 reduced ~40% of the KCa3.1 current (Figure 6C), where the RCF value was 0.73 ± 0.05 (n = 5) at 100 nM (Figure 6D). On the other hand, Cvill7 inhibited ~25% of the current at the same concentration (Figure 6C), with an RCF value 0.84 ± 0.03 (n = 5) (Figure 6D). The time course of inhibition of KCa3.1 currents at 100 nM of Cvill6 or Cvill7 is shown in Figure 6E and Figure 6F, respectively. The normalized peak currents (see Section 2.4 or Section 5 for details) for individual cells (n = 5) were averaged at each time point and plotted as a function of time. […] The recovery from the block with Cvill6 to the initial peak current occurred in 4–5 consecutive traces (~0.8 min) and in the case of Cvill7 it took only 2–3 consecutive traces (~0.5 min) after perfusing the cell with toxin-lacking solution. […] The quantity of native toxins was insufficient to conduct the full dose–response curves at this high concentration range (see above).
# Chinese hamster ovary (CHO) cells (generously provided by Yosef Yarden, Weizmann Institute of Science, Rehovot, Israel) or human embryonic kidney (HEK293) cells were cultured and maintained in Dulbecco’s modified Eagle medium (DMEM, Thermo Fisher Scientific, Waltham, MA, USA) supplemented with 2 mM L-glutamine, 10% fetal bovine serum (FBS), 100 µg/mL streptomycin, and 100 U/mL penicillin-g (Sigma-Aldrich, Budapest, Hungary) following standard culturing conditions. For transient expression of ion channels, CHO cells were transfected using the Lipofectamine 2000 kit (Invitrogen, Waltham, MA, USA) following the manufacturer’s instructions with plasmids encoding specific ion channels, including hKv1.1 (KCNA1 gene), hKv1.2 (KCNA2 gene), and hKv1.5 (KCNA5 gene) in a pCMV6-AC-GFP vector (OriGene Technologies), hKCa2.2 (KCNN2 gene) in a pCDN3 plasmid (for this transfection a GFP containing plasmid was co-transfected, courtesy of Bernard Attali, Tel Aviv University, Tel Aviv, Israel), and hKCa3.1 (KCNN4 gene) in a pEGFP-C1 vector (a kind gift by H. Wulff, University of California, Davis, CA, USA). Cells expressing GFP were identified using a Nikon TE 2000U fluorescence microscope (Nikon, Tokyo, Japan) with bandpass filters set to 455–495 nm for excitation and 515–555 nm for emission. Electrophysiological recordings were typically conducted 24 to 48 h after transfection.
# The extracellular solution (bath solution) for both Kv and KCa channels consisted of 145 mM NaCl, 5 mM KCl, 2.5 mM CaCl2, 1 mM MgCl2, 10 mM HEPES, and 5.5 mM glucose, pH 7.35, and osmolarity between 302 and 308 mOsM/L. For positive control solutions containing various concentrations of tetraethylammoniums (TEA^+), Na^+ was substituted with TEA-Cl in equimolar concentration in the bath solution and all other ingredients remained unchanged. To avoid toxin adsorption onto the plastic surfaces of the perfusion system, 0.1 mg/mL of bovine serum albumin (BSA, Sigma-Aldrich, Budapest, Hungary) was also added into all bath solutions prior to the patch-clamp assay. […]
# [4] = system: mKCa1.1 (BK or MaxiK); assay type: cell-based, mice; conditions: 100 nM; ~3 min
# From the text: Therefore, we investigated the activity of Cvill6 and Cvill7 toxins on three different types of Ca^2+-activated K^+ channels: (1) hKCa2.2 (SK2), the small-conductance Ca^2+-activated channel; (2) hKCa3.1 (IKCa1, SK4), the intermediate-conductance Ca^2+-activated channels, mainly expressed in T lymphocytes; and (3) mKCa1.1 (BK or MaxiK), the large-conductance voltage- and Ca^2+- activated channel of mice. Appropriate depolarization protocols were applied to record the K^+ current through respective KCa channels as shown in the inset of each panel in Figure 6A–C. […] The normalized peak currents (see Section 2.4 or Section 5 for details) for individual cells (n = 5) were averaged at each time point and plotted as a function of time.
# (§3) HEK 293 cells stably expressing mKCa1.1 1 (BKCa, Kcnma1 gene, generously provided by C. Beeton from Baylor College of Medicine, Houston, TX, USA) or hKv11.1 (hERG1, KCNH2 gene, gifted by H. Wulff from University of California, Davis, CA, USA) were utilized in this study.
# as §2
# [5] = target: T2, hKv1.2 (Homo sapiens, UniProt P16389); test: Whole-cell patch-clamp, hKv1.2 current in transiently transfected CHO cells; assay type: cell-based
# T2 construct: host or cells: CHO cells, transient transfection (Lipofectamine 2000)
# T2 sequence (P16389 whole entry): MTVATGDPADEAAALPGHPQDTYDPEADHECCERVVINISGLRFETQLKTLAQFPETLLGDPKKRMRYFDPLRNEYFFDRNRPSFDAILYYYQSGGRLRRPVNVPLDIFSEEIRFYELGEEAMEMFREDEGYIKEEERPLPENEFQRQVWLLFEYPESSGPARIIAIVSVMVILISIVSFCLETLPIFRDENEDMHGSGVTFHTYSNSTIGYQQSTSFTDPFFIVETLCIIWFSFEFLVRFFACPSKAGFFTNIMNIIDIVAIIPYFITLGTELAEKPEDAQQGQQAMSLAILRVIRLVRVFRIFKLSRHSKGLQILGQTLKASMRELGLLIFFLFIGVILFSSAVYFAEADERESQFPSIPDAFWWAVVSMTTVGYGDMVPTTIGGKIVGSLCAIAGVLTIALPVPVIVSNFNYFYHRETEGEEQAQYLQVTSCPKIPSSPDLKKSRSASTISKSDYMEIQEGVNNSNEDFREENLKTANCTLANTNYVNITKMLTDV
# From the text: as §1
# Chinese hamster ovary (CHO) cells (generously provided by Yosef Yarden, Weizmann Institute of Science, Rehovot, Israel) or human embryonic kidney (HEK293) cells were cultured and maintained in Dulbecco’s modified Eagle medium (DMEM, Thermo Fisher Scientific, Waltham, MA, USA) supplemented with 2 mM L-glutamine, 10% fetal bovine serum (FBS), 100 µg/mL streptomycin, and 100 U/mL penicillin-g (Sigma-Aldrich, Budapest, Hungary) following standard culturing conditions [52]. For transient expression of ion channels, CHO cells were transfected using the Lipofectamine 2000 kit (Invitrogen, Waltham, MA, USA) following the manufacturer’s instructions with plasmids encoding specific ion channels, including hKv1.1 (KCNA1 gene), hKv1.2 (KCNA2 gene), and hKv1.5 (KCNA5 gene) in a pCMV6-AC-GFP vector (OriGene Technologies), hKCa2.2 (KCNN2 gene) in a pCDN3 plasmid (for this transfection a GFP containing plasmid was co-transfected, courtesy of Bernard Attali, Tel Aviv University, Tel Aviv, Israel), and hKCa3.1 (KCNN4 gene) in a pEGFP-C1 vector (a kind gift by H. Wulff, University of California, Davis, CA, USA). […] Electrophysiological recordings were typically conducted 24 to 48 h after transfection.
# Whole-cell currents were recorded using the patch-clamp technique in voltage-clamp mode, following standard protocols [73]. […] Micropipettes were made from GC150F-7.5 borosilicate capillaries (Harvard Apparatus Co., Holliston, MA, USA) using a Sutter P2000 laser puller with tip resistance generally ranging from 3–6 MΩ in the bath solution. Only recordings with a leak current at the holding potential (Vh) of <10% of the peak current at the test potential were included in the data analysis. All recordings were performed at room temperature (20–25 °C). Control and test solutions were perfused to the cells via a gravity-driven micro-perfusion system and AutoMate Perfusion Pencil Multi-Barrel Manifold Tip (AutoMate Scientific, Berkeley, CA, USA), with an approximate flow rate of 200 µL/min, and the excess amount of bath solution was continuously removed from the recording chamber using vacuum suction.
# The duration of depolarization pulses was 15 ms for Kv1.3 and 50 ms for Kv1.1 and Kv1.5. However, for Kv1.2, 15–500 ms-long pulses were used to achieve the saturated peak current due to the variable activation kinetics of this channel [74].
# [6] = system: hKv11.1 (hERG1); test: Whole-cell patch-clamp, hKv11.1 current in stable HEK293 cells; assay type: cell-based, human; conditions: 100 nM; ~3 min
# Experimental: Appropriate voltage protocols were applied to record the K^+ currents from voltage-clamped cells in whole-cell configurations. Toxins were freshly dissolved in the bath solution supplemented with 0.1 mg/mL BSA and applied to the patched cells via a gravity-fed micro-perfusion system with an approximate flow rate of 200 µL/min.
# as §3
# Whole-cell currents were recorded using the patch-clamp technique in voltage-clamp mode, following standard protocols [73]. […] Micropipettes were made from GC150F-7.5 borosilicate capillaries (Harvard Apparatus Co., Holliston, MA, USA) using a Sutter P2000 laser puller with tip resistance generally ranging from 3–6 MΩ in the bath solution. Only recordings with a leak current at the holding potential (Vh) of <10% of the peak current at the test potential were included in the data analysis. All recordings were performed at room temperature (20–25 °C). […]
compound,measurement,setting,value
"CC[C@H](C)[C@H](NC(=O)[C@H](Cc1ccccc1)NC(=O)[C@@H](N)[C@@H](C)O)C(=O)N[C@@H](CC(N)=O)C(=O)N[C@H](C(=O)N[C@@H](CCCCN)C(=O)N[C@H]1CSSC[C@@H]2NC(=O)[C@H](CCCCN)NC(=O)CNC(=O)CNC(=O)[C@H](C)NC(=O)[C@H](Cc3c[nH]cn3)NC(=O)[C@@H]3CCCN3C(=O)CNC(=O)[C@H](Cc3ccc(O)cc3)NC(=O)[C@H](CC(C)C)NC(=O)[C@H](CC(=O)O)NC(=O)[C@H](CCCCN)NC(=O)[C@@H]3CSSC[C@@H](C(=O)N[C@@H](Cc4ccc(O)cc4)C(=O)N[C@@H](CC(N)=O)C(=O)N[C@@H](CC(N)=O)C(N)=O)NC(=O)[C@H](CCCCN)NC(=O)[C@H](CSSC[C@H](NC(=O)[C@H](CCC(N)=O)NC(=O)[C@H](CCCCN)NC(=O)[C@@H]4CCCN4C(=O)[C@H](CO)NC(=O)[C@H]([C@@H](C)O)NC1=O)C(=O)N[C@@H](CC(C)C)C(=O)N[C@@H](CCCCN)C(=O)N1CCC[C@H]1C(=O)N3)NC(=O)[C@H](CCCCN)NC(=O)CNC(=O)[C@H](CC(N)=O)NC(=O)[C@H](CCSC)NC2=O)C(C)C [Cvill7] (H-TFINVKCTSPKQCLKPCKDLYGPHAGGKCMNGKCKCYNN-NH2; disulfide 7-29, 13-34, 17-36; N-terminus and C-terminus assumed)",effect on KCa2.2 current,[1],Neither Cvill6 nor Cvill7 showed any effect
same,effect on hKv1.5 current,[2],did not show any effect
same,reversibility of KCa3.1 inhibition,"[3]; 100 nM, then toxin-free solution",inhibit the KCa3.1 channel reversibly with quick association and dissociation kinetics
same,time to steady-state block of KCa3.1,"[3]; 100 nM, 5–6 consecutive traces, n = 5",~ 1 min
same,reduction of KCa3.1 current,"[3]; 100 nM, representative record",~ 25%
same,inhibition at 0.1 µM,"[3]; CHO, 100 nM, read-out: inhibition of KCa3.1 current",~16%
same,potency estimated from few doses,"[3]; CHO, KCa3.1, estimated from a single concentration (100 nM), bimolecular 1:1 interaction, read-out: estimated IC50",~527 nM
same,"remaining current fraction (RCF, I/I0)","[3]; KCa3.1, 100 nM, mean ± SEM, n = 5",0.84 ± 0.03
same,time to recovery from KCa3.1 block,"[3]; toxin-lacking solution after 100 nM, n = 5",~ 0.5 min
same,effect on KCa1.1 current,[4],Neither Cvill6 nor Cvill7 showed any effect
same,IC50,[5],0.016 ± 0.00156 nM
same,time to apparent saturation of Kv1.2 block,[5]; 100 pM,7 to 8 min
same,loss of Kv1.2 current at saturation,"[5]; 100 pM, n = 4",96 ± 1.4%
same,inhibition at 0.001 µM,"[5]; CHO, 1 nM, representative record, read-out: inhibition of hKv1.2 current",> 97%
same,koff,"[5]; CHO, Kv1.2, calculated from τoff, 100 pM Cvill7 (n = 4) or 100 nM Cvill6 (n = 5)",0.00017 s⁻¹
same,kon,"[5]; CHO, Kv1.2, calculated from τon and τoff, 100 pM Cvill7 (n = 4) or 100 nM Cvill6 (n = 5)",1e+08 ± 1.5e+07 M⁻¹ s⁻¹
same,selectivity for Kv1.2 over Kv1.3,[5]; IC50 ratio,~ 450 fold
same,selectivity for Kv1.2 over KCa3.1,[5]; KCa3.1 IC50 estimated from a single concentration,"> 32,000 fold"
same,selectivity for Kv1.2 over Kv1.1,[5]; Kv1.1 IC50 estimated from a single concentration,"~ 12,000 fold"
same,"τon, representative fit","[5]; Kv1.2, 100 pM, representative fit (Figure S5A)",75.3 s
same,τon (development of block),"[5]; Kv1.2, 100 pM, single-exponential fits cell-by-cell, mean ± SEM, n = 4",104 ± 15 s
same,Hill coefficient (H),"[5]; Kv1.2, Hill equation fit of RCF values",1.03
same,τoff (wash-out),"[5]; Kv1.2, after 100 pM, mean ± SEM, n = 4",5978 ± 538 s
same,"τoff, representative fit","[5]; Kv1.2, after 100 pM, representative fit (Figure S5A)",7380 s
same,selectivity over several other ion channels,[5]; Kv1.2 vs several other ion channels,three orders of magnitude selectivity over several other ion channels
same,mode of block,[5]; inferred from Hill coefficients close to 1 and single-exponential kinetics,pore blockers that interact with channels with 1:1 stoichiometry in a bimolecular interaction
same,recovery of blocked Kv1.2 current,[5]; toxin-free solution for ~15 min after 100 pM,just one-fifth of the blocked current recovered
same,reversibility of Kv1.2 block,[5]; wash-out with toxin-free solution,virtually irreversible inhibitor of Kv1.2
same,effect on hKv11.1 (hERG1) current,[6],did not show any effect

# Reference: publication PMC12197678, “Cvill6 and Cvill7: Potent and Selective Peptide Blockers of Kv1.2 Ion Channel Isolated from Mexican Scorpion Centruroides villegasi” (Toxins, 2025)
